Molecules are shown by their SMILES.

The target in assay [1] is T1, human 5HT2C receptor (Homo sapiens, UniProt P28335).
T1 construct: expressed in transfected cells; host or cells: HEK293
T1 sequence (P28335 33-458): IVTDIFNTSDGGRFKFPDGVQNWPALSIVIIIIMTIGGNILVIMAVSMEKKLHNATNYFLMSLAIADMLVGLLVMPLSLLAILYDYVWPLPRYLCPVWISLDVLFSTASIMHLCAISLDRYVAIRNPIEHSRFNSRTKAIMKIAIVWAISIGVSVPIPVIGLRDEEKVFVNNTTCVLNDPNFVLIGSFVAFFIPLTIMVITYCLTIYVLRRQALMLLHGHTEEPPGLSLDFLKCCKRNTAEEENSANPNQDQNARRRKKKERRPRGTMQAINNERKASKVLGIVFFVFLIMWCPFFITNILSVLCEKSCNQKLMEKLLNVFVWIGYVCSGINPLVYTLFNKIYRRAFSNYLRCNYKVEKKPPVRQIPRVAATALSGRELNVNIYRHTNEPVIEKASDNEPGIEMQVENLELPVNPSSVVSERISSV
Nature of the assay: Intracellular IP3 (IP) accumulation assay, 5HT2C. The settings on record: HEK293 cells transfected with human 5HT2C receptor cDNA. In kind it is cell-based. How it is done:
HEK293 cells were transfected in 15 cm sterile dishes with or without (control) 16 ug of human 5HT2C receptor cDNA [for example see, Saltzman, A. G., et al. Biochem. Biophys. Res. Commun. 181, 1469-1478 (1991)] using 25 ul of lipofectamine. Cells were then incubated for 3-4 hours at 37° C./5% CO2 and then transfection media was removed and replaced with 100 ul of DMEM. Cells were then plated onto 100 cm sterile dishes. The next day cells were plated into 96 well PDL microtiter plates at a density of 55K/0.2 mL. Six hours latter, media was exchanged with [^3H]inositol (0.25 uCi/well) in inositol free DMEM and plates were incubated at 37° C./5% CO2 overnight. The next day, wells were aspirated and 200 ul of DMEM containing test compound, 10 uM pargyline, and 10 mM LiCl was added to appropriate wells. Plates were then incubated at 37° C./5% CO2 for three hours followed aspiration and by addition of fresh ice cold stop solution (1M KOH, 19 mM Na-borate, 3.8 mM EDTA) to each well. Plates were kept on ice for 5-10 min and the wells were neutralized by addition of 200 ul of fresh ice cold neutralization solution (7.5% HCl). Plates were then frozen until further processing is desired. The lysate was then transferred into 1.5 mL Eppendorf tubes and 1 mL of chloroform/methanol (1:2) was added/tube. […]

For assay [2], the target named is 5HT2B receptor (Homo sapiens, UniProt P41595). Description: Activity against the 5HT2B receptor (selectivity). In kind it is cell-based.
5HT2B receptor, sequence (P41595 whole entry): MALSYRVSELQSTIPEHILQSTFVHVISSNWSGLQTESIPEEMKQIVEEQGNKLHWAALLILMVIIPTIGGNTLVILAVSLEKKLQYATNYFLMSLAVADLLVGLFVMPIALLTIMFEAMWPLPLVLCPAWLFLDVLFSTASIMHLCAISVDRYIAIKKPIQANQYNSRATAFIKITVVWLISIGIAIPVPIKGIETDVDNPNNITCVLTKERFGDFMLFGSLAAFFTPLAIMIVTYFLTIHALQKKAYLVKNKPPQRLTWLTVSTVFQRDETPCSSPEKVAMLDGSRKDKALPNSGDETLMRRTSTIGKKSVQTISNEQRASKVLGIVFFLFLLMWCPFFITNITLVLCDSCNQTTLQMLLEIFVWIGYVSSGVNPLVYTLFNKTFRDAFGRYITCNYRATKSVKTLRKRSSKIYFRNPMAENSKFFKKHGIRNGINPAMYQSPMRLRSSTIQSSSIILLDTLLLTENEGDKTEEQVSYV
For assay [3], the target named is 5HT2A receptor (Homo sapiens, UniProt P28223). Nature of the assay: EC50 against the 5HT2A receptor (selectivity). It counts as cell-based.
5HT2A receptor, sequence (P28223 whole entry): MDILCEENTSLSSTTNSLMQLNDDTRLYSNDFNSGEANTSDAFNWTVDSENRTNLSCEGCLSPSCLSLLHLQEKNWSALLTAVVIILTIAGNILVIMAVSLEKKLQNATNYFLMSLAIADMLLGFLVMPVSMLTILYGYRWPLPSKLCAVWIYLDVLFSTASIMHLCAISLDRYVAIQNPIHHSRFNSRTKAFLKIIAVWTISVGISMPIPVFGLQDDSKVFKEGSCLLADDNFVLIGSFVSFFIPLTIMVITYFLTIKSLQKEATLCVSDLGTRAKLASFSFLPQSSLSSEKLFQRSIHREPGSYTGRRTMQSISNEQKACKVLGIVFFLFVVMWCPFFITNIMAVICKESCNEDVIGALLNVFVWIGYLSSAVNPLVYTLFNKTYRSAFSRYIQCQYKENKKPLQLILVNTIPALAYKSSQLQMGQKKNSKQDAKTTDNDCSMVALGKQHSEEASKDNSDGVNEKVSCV
For assay [4], the system named is guinea pigs. The following applies: repeat administration; cited from earlier work.

Broadly, the EC50 is the concentration that produces a half-maximal response. High values mean weaker potency, low ones greater potency. The compound `C[C@@H]1CNCCN1c1cc(F)cc(-c2ccsc2)c1` [Compound 1] yielded a half-maximal effective concentration (EC50) in assay [1] of 2 nM.
As for `C[C@@H]1CNCCN1c1cccc(-c2ccccc2)c1F` [Compound 10, (R)-1-(2-Fluoro-biphenyl-3-yl)-2-methyl-piperazine], in assay [2], the “activity against the 5HT2B receptor” value was “essentially inactive”. Also, the EC50 was 5 nM in assay [1] and about 1700 nM in assay [3].
`C[C@H](N)Cc1cccc(C(F)(F)F)c1` [DEXNOR, dexnorfenfluramine]: in assay [4], the “amyloid precursor protein (APPs) secretion” value is “stimulated” and the “levels of Aβ production in vivo” value is reported as “reducing”.

(Values after patent publication US20080255137A1 (Arena Pharmaceuticals, Inc., priority 2004, published 2008).)
